Ten molecules from PubChem BioAssay AID686920 (Broad Institute, 2013) can be followed below.

SMILES strings stand for the structures. Activity calls are given as the source filed them.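 The calls were made as follows: active = fitted curve reaching 35% inhibition at a dose no higher than twice the top valid tested dose; inconclusive = flat fit with 30 to 70% inhibition, or a poor fit; inactive = the rest, including activity in the opposite direction.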

This experiment is described as follows: NR0B1 reporter signal reduction in A673 cells – cell-based, luciferase luminescence, cherry-pick, EWS/Fli inhibitor project, dose response (AID 686920). To be noted: A673 NR0B1-luciferase reporter, viability-normalised luminescence; at 68 µM (top of the series). (Reporter assays use an easily measured gene product as a stand-in for the process of interest.)

Regarding `COc1ccc(OC)c(-c2cc(C(F)(F)F)c3c(n2)sc2c(O)cc(=O)[nH]c23)c1`, the activity change, negative = inhibition was 5.23% (inactive).

For the molecule `C(=C\c1ccc(C2[C@H]3CNC[C@@H]2N3Cc2ccccn2)cc1)/c1ccccc1` (stereo not given in full), the activity change, negative = inhibition is 32.3% (inactive).

`CC(NC(=O)c1ccco1)c1nc(-c2ccc(C(C)(C)C)cc2)no1` (stereo not given): the activity change, negative = inhibition is 73.3% (inactive).

Turning to `Nc1nc(N)c2c(ccc3nccc32)[nH]1`, the activity change, negative = inhibition was 55.3% (inactive).

On to `COC(=O)C[C@H]1CC[C@@H](NC(=O)Nc2ccc(C(F)(F)F)cc2)[C@H](CO)O1`, for which the activity change, negative = inhibition is 16.7% (inactive).

In the case of `CN(C)Cc1c(O)ccc2c1O/C(=C\C=C\c1ccccc1)C2=O`, the activity change, negative = inhibition is 5.05% (inactive).

On to `CN(C(=O)COC(=O)c1cc(-c2ccccc2Cl)nc2ccccc12)C1CCS(=O)(=O)C1` (stereo not given), for which the activity change, negative = inhibition is 9.88% (inactive).

With `CCc1c(C(=O)NN2C(=O)C3CCCCC3C2=O)csc1C` (stereo not given), the activity change, negative = inhibition is 27.7% (inactive).

As to `COc1cc(/C=N/NC(=O)c2csc3c2CCCC3)cc(OC)c1O`, the activity change, negative = inhibition was 16.3% (inactive).

On to `C/C=C/c1ccc(C2[C@@H]3CN(C(=O)Cc4ccccc4)C[C@H]2N3)cc1` (stereo not given in full), for which the activity change, negative = inhibition is -8.33% (inactive).
